# Experiments:
# [1] = tested on: nonreplicating M. tuberculosis H37Rv; format: cell-based, Mycobacterium tuberculosis
# M. tuberculosis [2] = experiment: LORA MBC99, hypoxic; format: cell-based, Mycobacterium tuberculosis; details: hypoxic conditions (LORA)
# [3] = in vivo tolerance assessment, oral gavage; set-up: species or system female BALB/c mice; details: 100 mg/kg daily by oral gavage for 5 days, uninfected mice
# M. abscessus = experiment: broth microdilution, A570 readout, non-tuberculosis mycobacteria; format: cell-based
# M. chelonae = experiment: as above; format: cell-based
# M. marinum = experiment: as above; format: cell-based
# M. kansasii = experiment: as above; format: cell-based
# M. avium = experiment: as above; format: cell-based
# M. smegmatis = experiment: as above; format: cell-based
# M. bovis BCG = format: cell-based
# E. faecalis = experiment: MIC, Gram-positive panel; format: cell-based
# E. faecium = experiment: MIC, Gram-positive panel; format: cell-based
# [4] = tested on: VRE (Vancomycin-resistant E. faecium); experiment: MIC, Gram-positive panel; format: cell-based
# S. pyogenes = experiment: MIC, Gram-positive panel; format: cell-based
# S. pneumoniae = experiment: MIC, Gram-positive panel; format: cell-based
# B. thuringiensis = experiment: MIC, Gram-positive panel; format: cell-based
# B. cereus 14579 = experiment: MIC, Gram-positive panel; format: cell-based
# B. cereus 10987 = experiment: MIC, Gram-positive panel; format: cell-based
# B. anthracis = format: cell-based
# B. subtilis = experiment: MIC, Gram-positive panel; format: cell-based
# A. baumannii = experiment: MIC, Gram-negative panel; format: cell-based
# E. coli = experiment: MIC, Gram-negative panel; format: cell-based
# E. cloacae = experiment: MIC, Gram-negative panel; format: cell-based
# K. pneumoniae = experiment: MIC, Gram-negative panel; format: cell-based
# P. aeruginosa = experiment: MIC, Gram-negative panel; format: cell-based
# P. mirabilis = experiment: MIC, Gram-negative panel; format: cell-based
# [5] = liver microsome stability; format: in vitro ADME; details: 1 μM, 30 min, 0.5 mg/mL human liver microsomes
# [6] = liver microsome stability; format: in vitro ADME; details: 1 μM, 30 min, 0.5 mg/mL mouse liver microsomes
# Caco-2 = Caco-2 bidirectional permeability; format: in vitro ADME; details: Caco-2, 5 μM
# solubility = format: physicochemical; details: current study
# human ThyA (HsThyA) = human ThyA (HsThyA) (Homo sapiens, UniProt P04818); experiment: cell-free ThyA and ThyX enzyme inhibition assay; format: biochemical; details: purified HsThyA, inhibitor 13 μM, compared to positive control 1843U89
# [7] = molecular target: M. tuberculosis ThyA (MtThyA) (Mycobacterium tuberculosis, UniProt P9WFR9); experiment: cell-free ThyA and ThyX enzyme inhibition assay; format: biochemical
# MtThyX = MtThyX (Mycobacterium tuberculosis, UniProt P9WG57); experiment: cell-free ThyA and ThyX enzyme inhibition assay; format: biochemical, M. tuberculosis
# M. tuberculosis [8] = format: cell-based
# [9] = 100 mg/kg intraperitoneally; deposited solid residues; cited from earlier work
# [10] = tested on: Staphylococcus aureus strains (FDA209P, ATCC6538P, KB199); details: three Staphylococcus aureus strains (FDA209P, ATCC6538P, KB199); cited from earlier work
# [11] = tested on: Streptococcus faecium IFO3181; details: cited from earlier work
# Micrococcus luteus = details: cited from earlier work
# [12] = previous study ref 18; cited from earlier work
# [13] = molecular target: thymidylate synthase (E. faecium); details: competitive with coenzyme 5,10-methylenetetrahydrofolate; cited from earlier work
# M. tuberculosis H37Rv = experiment: microplate Alamar Blue assay; format: cell-based; details: Mycobacterium tuberculosis
# Chain of M. tuberculosis ThyA (MtThyA) (P9WFR9 whole entry): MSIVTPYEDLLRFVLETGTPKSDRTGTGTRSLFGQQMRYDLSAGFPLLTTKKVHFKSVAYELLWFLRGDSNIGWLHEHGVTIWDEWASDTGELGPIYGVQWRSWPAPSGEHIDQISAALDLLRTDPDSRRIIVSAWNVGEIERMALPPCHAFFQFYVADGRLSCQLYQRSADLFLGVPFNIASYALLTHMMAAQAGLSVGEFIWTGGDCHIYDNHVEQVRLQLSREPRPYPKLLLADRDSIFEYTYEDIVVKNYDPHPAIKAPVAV
# Chain of human ThyA (HsThyA) (P04818 whole entry): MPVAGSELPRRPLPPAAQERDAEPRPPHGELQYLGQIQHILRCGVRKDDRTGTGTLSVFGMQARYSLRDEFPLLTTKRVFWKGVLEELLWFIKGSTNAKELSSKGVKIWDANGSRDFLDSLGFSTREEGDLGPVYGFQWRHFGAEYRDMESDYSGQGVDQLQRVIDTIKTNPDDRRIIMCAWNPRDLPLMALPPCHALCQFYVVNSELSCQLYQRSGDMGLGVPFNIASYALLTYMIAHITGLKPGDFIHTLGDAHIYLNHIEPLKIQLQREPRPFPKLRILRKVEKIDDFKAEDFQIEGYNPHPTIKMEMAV
# Chain of MtThyX (P9WG57 whole entry): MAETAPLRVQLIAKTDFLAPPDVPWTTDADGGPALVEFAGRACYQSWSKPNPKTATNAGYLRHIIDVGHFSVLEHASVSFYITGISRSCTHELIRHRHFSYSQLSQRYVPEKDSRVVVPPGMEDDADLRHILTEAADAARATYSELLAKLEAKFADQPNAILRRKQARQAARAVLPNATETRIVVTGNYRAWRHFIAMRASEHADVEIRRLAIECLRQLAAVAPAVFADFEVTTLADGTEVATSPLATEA
structure (smiles),measurement,setting,value
"CCCc1c2c([nH]c(=O)c1C)C(=O)c1[nH]c(=O)c(C)c(CCC)c1C2=O [Compound 3, diazaquinomycin A]",MIC,[1],0.72 mg/L
same,MBC99,M. tuberculosis [2],did not exhibit a significant MBC99
same,tolerance in vivo,[3],well tolerated
same,MIC,M. abscessus,>7.5 mg/L
same,MIC,M. chelonae,>7.5 mg/L
same,MIC,M. marinum,>7.5 mg/L
same,MIC,M. kansasii,>7.5 mg/L
same,MIC,M. avium,3.85 mg/L
same,MIC,M. smegmatis,4.56 mg/L
same,MIC,M. bovis BCG,0.12 mg/L
same,MIC,E. faecalis,8 mg/L
same,MIC,E. faecium,8 mg/L
same,MIC,[4],32 mg/L
same,MIC,S. pyogenes,>25 mg/L
same,MIC,S. pneumoniae,>10 mg/L
same,MIC,B. thuringiensis,25 mg/L
same,MIC,B. cereus 14579,25 mg/L
same,MIC,B. cereus 10987,12.5 mg/L
same,MIC,B. anthracis,6.25 mg/L
same,MIC,B. subtilis,100 mg/L
same,MIC,A. baumannii,128 mg/L
same,MIC,E. coli,128 mg/L
same,MIC,E. cloacae,64 mg/L
same,MIC,K. pneumoniae,128 mg/L
same,MIC,P. aeruginosa,128 mg/L
same,MIC,P. mirabilis,64 mg/L
same,parent compound remaining,[5],96%
same,parent compound remaining,[6],98%
same,efflux ratio,Caco-2,0.2
same,permeability (from apical to basolateral),Caco-2,44 nm/s
same,permeability (from basolateral to apical),Caco-2,9 nm/s
same,recovery (from apical to basolateral),Caco-2,82%
same,recovery (from basolateral to apical),Caco-2,98%
same,maximum room temperature concentration in DMSO,solubility,600 µg/mL
same,inhibition of enzyme activity,human ThyA (HsThyA),did not significantly inhibit
same,inhibition of enzyme activity,[7],did not significantly inhibit
same,inhibition of enzyme activity,MtThyX,did not significantly inhibit
same,reversal of antibiotic properties by thymidine,M. tuberculosis [8],no reversal
same,toxicity in vivo,[9],acute toxicity
same,MIC,[10],6.25 mg/L
same,MIC,[11],6.25 mg/L
same,MIC,Micrococcus luteus,1.13 mg/L
same,maximum room temperature concentration in water,[12],0.15 µg/mL
same,Ki,[13],36 µM
O=[N+]([O-])c1cn2c(n1)OC[C@@H](OCc1ccc(OC(F)(F)F)cc1)C2 [PA824],MIC,M. tuberculosis H37Rv,0.01 mg/L
